Source: PubChem BioAssay AID256 (DTP/NCI, 2004)
“And” between values parts separate entries of the source, which are not always exact repeats. Identical values can stand only once. Toxic doses and inconclusive results are not listed.

System: CD2F1 mice, L1210 leukemia ip, survival T/C
Experiment: NCI In Vivo Anticancer Drug Screen. Data for tumor model L1210 Leukemia (intraperitoneal) in CD2F1 (CDF1) mice
Settings: endpoint: mean survival time, higher = longer survival
Outline: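 Antitumor effect is scored in animals hosting a serially transplanted tumor. Values compare compound-dosed animals against vehicle-only controls as a simple quotient.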

[1] = dose: 100.0 mg/kg/injection, schedule: Q01DX001 (ip), vehicle: saline with Tween-80
[2] = dose: 100.0 mg/kg/injection, schedule: Q01DX009 (ip), vehicle: saline with Tween-80
[3] = dose: 200.0 mg/kg/injection, schedule: Q01DX009 (ip), vehicle: saline with Tween-80
[4] = dose: 400.0 mg/kg/injection, schedule: Q01DX009 (ip), vehicle: saline with Tween-80
[5] = dose: 100.0 mg/kg/injection, schedule: Q01DX001 (ip), vehicle: saline
[6] = dose: 100.0 mg/kg/injection, schedule: Q04DX003 (ip), vehicle: saline
[7] = dose: 100.0 mg/kg/injection, schedule: Q04DX003 (ip), vehicle: saline with Tween-80
[8] = dose: 200.0 mg/kg/injection, schedule: Q04DX003 (ip), vehicle: saline with Tween-80
[9] = dose: 400.0 mg/kg/injection, schedule: Q04DX003 (ip), vehicle: saline with Tween-80
[10] = dose: 12.5 mg/kg/injection, schedule: Q04DX003 (ip), vehicle: saline
[11] = dose: 25.0 mg/kg/injection, schedule: Q04DX003 (ip), vehicle: saline
[12] = dose: 200.0 mg/kg/injection, schedule: Q04DX003 (ip), vehicle: saline
[13] = dose: 200.0 mg/kg/injection, schedule: Q04DX002 (ip), vehicle: saline with Tween-80
[14] = dose: 400.0 mg/kg/injection, schedule: Q04DX003 (ip), vehicle: saline
[15] = dose: 25.0 mg/kg/injection, schedule: Q01DX001 (ip), vehicle: saline
[16] = dose: 50.0 mg/kg/injection, schedule: Q01DX001 (ip), vehicle: saline
[17] = dose: 25.0 mg/kg/injection, schedule: Q04DX002 (ip), vehicle: saline with Tween-80
[18] = dose: 50.0 mg/kg/injection, schedule: Q04DX002 (ip), vehicle: saline with Tween-80

## CSC(=NC#N)N(C)C
dose: 25.0 mg/kg/injection, schedule: Q04DX003 (ip), vehicle: saline sonified
  T/C: 105 % of control
dose: 50.0 mg/kg/injection, schedule: Q04DX003 (ip), vehicle: saline sonified
  T/C: 95 % of control
[1]
  T/C: 114 % of control

## O=C1c2ccccc2C(=O)N1Cc1ccccc1
[2]
  T/C: 105 % of control
[3]
  T/C: 100 % of control
[4]
  T/C: 103 % of control

## Cc1[nH]c(=S)[nH]c(=O)c1Cc1c(O)ccc2ccccc12
[5]
  T/C: 97 % of control
dose: 200.0 mg/kg/injection, schedule: Q01DX001 (ip), vehicle: saline
  T/C: 100 % of control
dose: 400.0 mg/kg/injection, schedule: Q01DX001 (ip), vehicle: saline
  T/C: 103 % of control

## CCN(CC)C(=O)c1ccc[n+](Cc2ccc(Cl)c(Cl)c2)c1
[6]
  T/C: 103 % of control

## Nc1ncnc2c1ncn2C1OC(CO)C(=C(Br)Br)C1O (stereo not given)
dose: 6.25 mg/kg/injection, schedule: Q01DX005 (ip), vehicle: distilled water + Tween-80
  T/C: 103 % of control
dose: 12.5 mg/kg/injection, schedule: Q01DX005 (ip), vehicle: distilled water + Tween-80
  T/C: 100 % of control
dose: 25.0 mg/kg/injection, schedule: Q01DX005 (ip), vehicle: distilled water + Tween-80
  T/C: 97 % of control
dose: 50.0 mg/kg/injection, schedule: Q01DX005 (ip), vehicle: distilled water + Tween-80
  T/C: 101 % of control
dose: 100.0 mg/kg/injection, schedule: Q01DX005 (ip), vehicle: distilled water + Tween-80
  T/C: 100 % of control

## O=C(O)/C=C/C(=O)Nc1cccc(Oc2ccc([N+](=O)[O-])cc2[N+](=O)[O-])c1
dose: 100.0 mg/kg/injection, schedule: Q01DX009 (ip), vehicle: saline
  T/C: 96 % of control
dose: 200.0 mg/kg/injection, schedule: Q01DX009 (ip), vehicle: saline
  T/C: 100 % of control
dose: 400.0 mg/kg/injection, schedule: Q01DX009 (ip), vehicle: saline
  T/C: 98 % of control

## [C-]1=CC2C=CC1C1[C-]=CC21.[Cl][Pd][Cl] (stereo not given)
dose: 12.5 mg/kg/injection, schedule: Q01DX009 (ip), vehicle: saline with Tween-80
  T/C: 94 % of control

## O=C(O)C1CCCCC1c1c2ccc(=O)cc-2oc2cc(O)ccc12 (stereo not given)
[7]
  T/C: 104 % of control
[8]
  T/C: 92 % of control
[9]
  T/C: 92 % of control

## CC([NH-])C([NH-])O.O=S(=O)(O)O.[Pt+2] (stereo not given)
[10]
  T/C: 166 % of control
[11]
  T/C: 103 % of control

## CCOC(=O)CC1=Cc2c(OC)ccc(OC)c2CC1
dose: 12.5 mg/kg/injection, schedule: Q01DX009 (ip), vehicle: other
  T/C: 95 % of control
dose: 25.0 mg/kg/injection, schedule: Q01DX009 (ip), vehicle: other
  T/C: 106 % of control
dose: 50.0 mg/kg/injection, schedule: Q01DX009 (ip), vehicle: other
  T/C: 98 % of control
dose: 100.0 mg/kg/injection, schedule: Q01DX009 (ip), vehicle: other
  T/C: 92 % of control
dose: 200.0 mg/kg/injection, schedule: Q01DX009 (ip), vehicle: other
  T/C: 88 % of control

## c1ccc2c(c1)CC1Nc3ccccc3C21 (stereo not given)
[1]
  T/C: 97 % of control
dose: 200.0 mg/kg/injection, schedule: Q01DX001 (ip), vehicle: saline with Tween-80
  T/C: 97 % of control
dose: 400.0 mg/kg/injection, schedule: Q01DX001 (ip), vehicle: saline with Tween-80
  T/C: 96 % of control

## C[N+](C)(C)CC1CO1 (stereo not given)
[6]
  T/C: 106 % of control
[12]
  T/C: 94 % of control

## CC(C)(CCC#N)C(=O)c1ccccc1
dose: 100.0 mg/kg/injection, schedule: Q04DX002 (ip), vehicle: saline with Tween-80
  T/C: 94 % of control
[13]
  T/C: 102 % of control

## O=C(c1ccc(F)cc1)c1ccccc1Cl
[2]
  T/C: 102 % of control
[7]
  T/C: 105 % of control
[3]
  T/C: 97 % of control
[8]
  T/C: 98 % of control
[4]
  T/C: 97 % of control
[9]
  T/C: 98 % of control

## Cc1ccc(NC(=O)Nc2cccc(C(=O)O)c2)cc1[N+](=O)[O-]
dose: 50.0 mg/kg/injection, schedule: Q01DX009 (ip), vehicle: saline with Tween-80
  T/C: 94 % of control
[2]
  T/C: 98 % of control
[3]
  T/C: 98 % of control

## Nc1ccc(Nc2c3ccccc3nc3ccccc23)cc1
dose: 6.25 mg/kg/injection, schedule: Q04DX003 (ip), vehicle: saline
  T/C: 101 % of control
[10]
  T/C: 111 % of control
[11]
  T/C: 114 % of control

## CCCCCCCc1c(C)c2ccc(OC)cc2[nH]c1=O
[7]
  T/C: 95 % of control
[8]
  T/C: 90 % of control

## O=C(O)C1CCCC(C(=O)O)[N-]1.O=C(O)C1CCCC(C(=O)O)[N-]1.[Cr+2] (stereo not given)
[6]
  T/C: 104 % of control
[12]
  T/C: 101 % of control
[14]
  T/C: 104 % of control

## [Cl][Pt+2][Cl].[NH-]c1ccccc1F.[NH-]c1ccccc1F
dose: 15.63 mg/kg/injection, schedule: Q04DX003 (ip), vehicle: saline with Tween-80
  T/C: 112 % of control
dose: 31.25 mg/kg/injection, schedule: Q04DX003 (ip), vehicle: saline with Tween-80
  T/C: 108 % of control
dose: 62.5 mg/kg/injection, schedule: Q04DX003 (ip), vehicle: saline with Tween-80
  T/C: 115 % of control
dose: 125.0 mg/kg/injection, schedule: Q04DX003 (ip), vehicle: saline with Tween-80
  T/C: 93 % of control

## CC(C)OC(=O)C#CC(=O)O
[15]
  T/C: 97 % of control
[16]
  T/C: 97 % of control

## COC1CCC(/C=C(\C#N)C2CCC([N+](=O)[O-])CC2)CC1Br (stereo not given)
[17]
  T/C: 105 % of control
[18]
  T/C: 96 % of control

## COc1ccc(/C=C/C(=O)c2ccc3c(c2)OCO3)cc1OC
[6]
  T/C: 91 % of control
[12]
  T/C: 93 % of control
[14]
  T/C: 95 % of control

## NC(N)=N/N=C/c1ccc(Cl)cc1
dose: 20.0 mg/kg/injection, schedule: Q01DX009 (ip), vehicle: Klucel (hydroxypropylcellulose) (HPC)
  T/C: 100 % of control
dose: 40.0 mg/kg/injection, schedule: Q01DX009 (ip), vehicle: Klucel (hydroxypropylcellulose) (HPC)
  T/C: 96 % of control

## O=c1[nH]cc(Cc2cccc(OCc3ccccc3)c2)c(=O)[nH]1
dose: 75.0 mg/kg/injection, schedule: Q01DX001 (ip), vehicle: saline with Tween-80
  T/C: 97 % of control
dose: 150.0 mg/kg/injection, schedule: Q01DX001 (ip), vehicle: saline with Tween-80
  T/C: 98 % of control
dose: 300.0 mg/kg/injection, schedule: Q01DX001 (ip), vehicle: saline with Tween-80
  T/C: 89 % of control

## OC1C2CC3C(C2)C13 (stereo not given)
[2]
  T/C: 102 % of control and 106 % of control
[3]
  T/C: 96 % of control
[4]
  T/C: 98 % of control and 102 % of control

## Cc1c(Cl)c(N)c(Cl)c(Cl)c1Cl
[7]
  T/C: 101 % of control
[8]
  T/C: 104 % of control
[9]
  T/C: 96 % of control

## CS(=O)(=O)Nc1ccc(Nc2c3ccccc3nc3cc([N+](=O)[O-])ccc23)cc1
dose: 7.0 mg/kg/injection, schedule: Q01DX009 (ip), vehicle: saline
  T/C: 237 % of control
dose: 10.0 mg/kg/injection, schedule: Q01DX009 (ip), vehicle: saline
  T/C: 155 % of control
dose: 12.5 mg/kg/injection, schedule: Q01DX001 (ip), vehicle: saline
  T/C: 175 % of control
[15]
  T/C: 195 % of control
[16]
  T/C: 170 % of control
[5]
  T/C: 116 % of control

## C(CC1CO1)CC1OC1CC1CO1 (stereo not given)
dose: 39.0 mg/kg/injection, schedule: Q01DX009 (ip), vehicle: saline
  T/C: 109 % of control
dose: 75.0 mg/kg/injection, schedule: Q01DX001 (ip), vehicle: saline
  T/C: 109 % of control
dose: 133.0 mg/kg/injection, schedule: Q01DX009 (ip), vehicle: saline
  T/C: 156 % of control
dose: 150.0 mg/kg/injection, schedule: Q01DX001 (ip), vehicle: saline
  T/C: 119 % of control

## O=C(Cn1[nH]c(=O)ccc1=O)c1ccccc1
dose: 12.5 mg/kg/injection, schedule: Q04DX002 (ip), vehicle: saline with Tween-80
  T/C: 95 % of control
[17]
  T/C: 100 % of control
[18]
  T/C: 91 % of control and 92 % of control
[13]
  T/C: 94 % of control

## C/C(=N\O)C1(C)CC=CCC1C(=O)O (stereo not given)
[2]
  T/C: 90 % of control
[7]
  T/C: 100 % of control
[3]
  T/C: 93 % of control
[8]
  T/C: 96 % of control
[4]
  T/C: 94 % of control
[9]
  T/C: 94 % of control

## O=S(=O)(/C=C\c1ccccc1)/C=C/c1ccccc1
[7]
  T/C: 91 % of control
[9]
  T/C: 86 % of control

## CCOC(=O)C(N)CSSCC(N)C(=O)OCC (stereo not given)
[6]
  T/C: 100 % of control
[12]
  T/C: 102 % of control
[14]
  T/C: 97 % of control
